One assay deals with APS-2. Description: ELISA on solid-phase lipid-coated plate: binding of antibodies of APS patient serum APS-2. Also noted: species or system human. The following applies: Experiment 1; Absorbance, mean ± SD, n = 3; solid-phase lipid, β2-GPI 15 μg/mL; serum with β2-GPI removed. The protocol:
To eliminate endogenous β2-GPI in some experiments, serum samples were passed through a heparin-Sepharose column. The effluent was dialyzed against PBS and was used for ELISAs.
(§1) Synthesized oxLig-1 (50 μg/mL, 50 μL/well) was adsorbed by evaporation on a polystyrene plate (Immulon 1B; Dynex Technologies Inc.), and the plate was then blocked with 1% BSA. Serum samples (diluted 1:100 with PBS containing 0.3% BSA) were incubated in the wells with β2-GPI (15 μg/mL) or other proteins for one hour at room temperature. Antibody binding was detected with HRP-labeled anti-human IgG. Further steps were performed through a method as described in “anti-β2-GPI ELISA.”
(§2) CL (50 μg/mL, 50 μL/well) was adsorbed on a polystyrene plate (Immulon 1B), and further steps were performed through a method as described in “ELISA for antibodies against a protein-oxLig-1 complex.”

For the next assay, the system named is J774A.1 cells. As to the kind of experiment: Liposome binding to macrophages (3H-labeled liposomes, 4° C.). In kind it is cell-based, murine. The method, then:
FIG. 10. Effect of phosphatidylserine (PS) or oxLig-1 content on the binding of liposomes to macrophages. A monolayer of J774.A1 cells was incubated for 2 hours at 4° C. with Celgrosser-P medium containing ^3H-labeled liposomes (50 nmol lipid/well). Open circle represents PS-liposomes; closed circle represents PS-Chol-liposomes; open square represents oxLig-1-liposomes; and closed square represents oxLig-1-Chol-liposomes. Data are indicated as the mean± SD of triplicate samples.
FIG. 11. β2-GPI and anti-β2-GPI monoclonal antibody-dependent binding of ligand-containing liposomes to macrophage. A monolayer of J774.A1 cells was incubated for 2 hours at 4° C. with Celgrosser-P medium containing ^3H-labeled liposomes (50 nmol lipid/well) and WB-CAL-1, in the presence or absence of β2-GPI (200 μg/ml). • A: Binding of PS-liposomes (PS: 50 mol %,) to J774.A1. cells in the presence (closed square) or absence (open square) of β2-GPI (200 μg/ml) • B: Binding of oxLig-1-liposomes (oxLig-1: 40 mol %) to J774.A1 cells in the presence (black bar) or absence (white bar) of β2-GPI (200 μg/ml). • C: A monolayer of J774.A1 cells was incubated for 2 hours at 4° C. with Celgrosser-P medium containing ^3H-labeled synthesized oxLig-1-liposomes (50 nmol lipid/well) and WB-CAL-1, in the presence or absence of β2-GPI (200 μg/ml). Binding of synthesized oxLig-1-liposomes in the absence of β2-GPI and WB-CAL-1 (open circle), binding of synthesized oxLig-1-liposomes in the presence of β2-GPI (open square), binding of synthesized oxLig-1-liposomes in the presence of WB-CAL-1 (closed square), and binding of synthesized oxLig-1-liposomes in the presence of both β2-GPI and WB-CAL-1 (closed circle). Data are indicated as the mean ± SD of triplicate samples.
A monolayer of J774.A1 cells was incubated for 2 hours at 4° C. with Celgrosser-P medium containing [^3H]-labeled liposomes (containing a predetermined ligand, 50 nmol lipid/well). DPPS-containing liposomes (open squares), oxLig-1-containing liposomes (closed squares), oxLig-2-containing liposomes (closed circles), and 13-COOH-7KC-containing liposomes (closed triangles). Data are indicated as mean± SD of triplicate samples.
A monolayer of J774.A1 cells was incubated for 2 hours at 4° C. with Celgrosser-P medium containing [^3H]-labeled liposomes (containing a predetermined ligand (30 mmol %), 50 nmol lipid/well) and in the presence (black bars) or absence (white bars) of β2-GPI (200 μg/mL) and WB-CAL-1 ([…]).
A monolayer culture of murine macrophage-like cells (J774A.1) obtained from Riken Cell Bank (Tsukuba) was maintained in RPMI 1640 medium supplemented with 10% fetal carf serum (FCS). For binding experiments, the cells (8×10^5 cells/mL, RPMI1640) were dispensed in an amount of 1 mL/well into a 12-well culture plate (Sumitomo Bakelite Co., Ltd.) and were incubated for 24 hours at 37° C., then the culture broth was replaced with Celgrosser-P medium (Sumitomo Pharmaceutical Co.). After one hour of preincubation at 37° C., 50 μL of liposomes (50 nmol lipid/well) with or without β2-GPI (200 μg/mL) and WB-CAL-1 (100 μg/mL) were added to each culture, and the cells were incubated at 4° C. and/or 37° C. The wells were next washed with chilled PBS, and the cells were lysed by adding 1 mL of 0.1N NaOH. An aliquot was taken for determination of cellular proteins and of radioactivity associated with the cells. Protein concentration was determined in a manner as described above.

A further assay has as its system EY2C9. Description: ELISA on solid-phase lipid (ligand)-coated plate: EY2C9 binding in presence of β2-GPI. Also noted: species or system human. The method, then:
(§3) Binding to extracted lipids: A microtiter plate (Immulon 1B, Dynex Technologies Inc.) was coated with lipids extracted from LDLs (50 μg/mL, 50 μL/well) by ethanol evaporation. The wells were blocked with PBS containing 1% BSA for one hour and the wells were incubated with 30 μg/mL of β2-GPI for one hour. Then, β2-GPI binding was detected using Cof-22 and HRP-labeled anti-mouse IgG antibodies. Alternatively, an anti-β2-GPI autoantibody (Cof-22, WB-CAL-1, or EY2C9) was diluted with a 0.3% BSA-containing PBS, and the diluted antibody was added to the coated plate (1.0 μg/mL, 100 μL/well) and incubated with β2-GPI (15 μg/mL) for one hour. The binding of the antibody was detected by an HRP-labeled anti-mouse IgG /or an anti-human IgM. The color was developed with H2O2 and o-phenylenediamine, and OD was measured at 490 nm. Between these steps, extensive washing were done using PBS containing 0.05% Tween 20.
as §1, §2
A general note: An ELISA detects its analyte on a solid surface through an enzyme-linked reagent.

The test system of a further assay is WB-CAL-1. Description: ELISA on solid-phase lipid (ligand)-coated plate: WB-CAL-1 binding in presence of β2-GPI. On the set-up: species or system mouse. The method, then: as §3, §1, §2
Setting [1] is: Experiment 1, Absorbance, mean ± SD, n = 3, solid-phase lipid, β2-GPI 15 μg/mL.
Setting [2] is: absorbance at 490 nm, mean ± SD (n = 3), solid-phase ligand not methylated.

Consider `CC(C)CCC[C@@H](C)[C@H]1CC[C@H]2[C@@H]3C(=O)C=C4C[C@@H](OC(=O)CCCCCCCC(=O)O)CC[C@]4(C)[C@H]3CC[C@]12C` [oxLig-1, 9-oxo-9-(7-ketocholest-5-en-3β-yloxy)nonanoic acid], for which the “Binding of β2-GPI-dependent aCL, APS-2” value in the assay on APS-2 is 1.222 ± 0.057. Moreover, in the assay with J774A.1 cells (J774A.1 cells, 2 hours at 4° C., 50 nmol lipid/well, without β2-GPI and antibody, result in words), the “direct binding of liposomes to macrophages” value is “relatively low or negligible small”. Further, the “uptake of ligand-containing liposomes to J774A.1 cells in the presence of both β2-GPI and WB-CAL-1” value in the assay with J774A.1 cells (liposomes containing the ligand, compared with cholesteryl linoleate-liposomes (control), FIG. 20, result in words) was “significantly enhanced”. Moreover, in the assay with J774A.1 cells (synthesized oxLig-1-liposomes, J774A.1 cells), the “ligand concentration in liposomes at which binding to macrophages reached almost plateau” value was found to be 10 mol %. The “Binding of β2-GPI-dependent aCL, EY2C9” value in the assay on EY2C9 (setting [1]) turned out to be 0.915 ± 0.072. For the same compound, the “EY2C9 binding, No treatment” value in the assay on EY2C9 (setting [2]) was 1.458 +/− 0.062. For the same compound, in the assay with WB-CAL-1 (setting [1]), the “Binding of β2-GPI-dependent aCL, WB-CAL-1” value was 1.035 ± 0.062. The “WB-CAL-1 binding, No treatment” value in the assay with WB-CAL-1 (setting [2]) is reported as 0.945 +/− 0.068.
